# Measured values reported in patent US5292498A, “Method of treating lung disease with uridine triphosphates” (The University of North Carolina At Chapel Hill, priority 1991, dated 1994).
# Columns and labels:
# [1] = test system: normal human nasal epithelium; experiment: Bioelectric studies (short circuit current, Isc) of normal human nasal epithelium in Ussing chambers; format: cell-based
# Description: (§1) Freshly excised human nasal epithelium from normal or cystic fibrosis subjects was grown in primary culture in F-12, hormone-supplemented medium in accordance with known procedures. See R. Wu et al., Am. Rev. Respir. Dis. 132, 311-320 (1985). For [Ca^2+ ]i measurements, cultures were grown on non-fluorescent vitrogen substrates on glass coverslips. Cultures for electrophysiologic studies were grown to confluence on permeable collagen matrix supports (CMS), allowing addition of agonists to the basolateral or apical surface of the epithelial sheet.
# Confluent monolayers of primary human nasal epithelium were mounted in modified Ussing chambers in accordance with known procedures. See, e.g., R. Boucher et al., J. Physiol. (Lond.) 405, 77-103 (1988); M. Knowles et al., Science 221, 1067-1070 (1983). The studies described below were performed under short circuit current conditions at 37° C., and in some studies, amiloride was added to the apical bath (10^-4 M) to block transepithelial sodium transport. Changes in transepithelial potential difference (Vt), resistance (Rt) and short circuit current (Isc) were measured in response to addition of various nucleotides. Each cultured preparation was exposed to only one concentration of an agonist on either the basolateral or apical surface to avoid the tachyphylaxis observed in preliminary cumulative dose response studies. To construct concentration-effect relationships of responses to nucleotides, it was assumed that the same maximum response to an agonist could be induced from each tissue culture preparation from the same individual.
# The effects of extracellular ATP on normal human nasal epithelium were investigated employing bioelectric measurements of ion transport activity when the nucleotide was applied to either the apical or basolateral membrane. […] In general, the change in Isc induced by application of ATP to the apical or the basolateral side returned to baseline or below within 5 minutes after addition of agonist. […] Apical pretreatment with amiloride (10^-4 M) removes active Na^+ absorption as a component of the Isc so that the residual Isc reflects a Cl^- secretory current (R. Boucher et al., J. Clin. Invest. 78, 1245-1252 (1986); N. Willumsen et al., Am. J. Physiol. 256, C1033-C1044 (1989)).
# A concentration-effect relationship was found when ATP was applied to normal human nasal epithelium under basal conditions (data not shown). Comparisons were made between responses of tissues from different donors based on the peak change in Isc following ATP application. The curve describes the mean peak change in Isc in response to log increasing concentrations of ATP applied to the apical or basolateral surface.
# Concentration-effect relationships were also found for ATP applied to the apical or basolateral membrane of amiloride-pretreated tissues (data not shown). Again, the nucleotide's effect on ion transport was examined as the mean peak change in Isc after ATP application.
# The purinergic receptor subtype(s) linked to regulation of ion transport of human nasal epithelium were characterized by obtaining concentration-effect relationships for a variety of purine and pyrimidine agonists in preparations derived from normal and CF patients. We characterized receptor subtype(s) on the […] surface by measuring nucleotide effect on basal Na^+ transport rates. Because therapies designed to induce Cl^- secretion might best be delivered by the aerosol route, receptor subtype characterization on the apical barrier was performed in the presence of amiloride. The effect of extracellular nucleotides on ion transport is reported as the percent change in Isc from control values when applied to the basolateral or apical surface of the culture. Basal pre-agonist currents were similar for tissues in each concentration group.
# [2] = test system: CF nasal epithelial cells; experiment: Intracellular calcium [Ca^2+ ]i in single CF nasal epithelial cells (Fura-2); format: cell-based, human; conditions: FIG. 6
# Description: as §1, with “132, 311-320 (1985).” left out
# Primary human nasal epithelial cells grown to confluence on vitrogen coated coverslips were loaded with a final concentration of 3 μM Fura-2/AM at 37° C. for 30 minutes. The cells were then washed in NaCl Ringer and mounted in a chamber for measurements of fluorescence. To reduce the rate of leakage of Fura-2 from the cell into the extracellular space and avoid time-dependent compartmentalization of the probe, all measurements of [Ca^2+ ]i were performed at 25° C.
# Measurements of [Ca^2+ ]i in single human nasal epithelial cells were obtained with a modular microspectrofluorimeter (SPEX Industries, Inc., Edison, N.J.) attached to a Zeiss Axiovert IM 35 microscope. […] The fluorescent signal from a single cell was measured with a photometer equipped with a pinhole (spot diameter of 3-5 μm) that excluded signals from adjacent cells. […]
compound,measurement,setting,value
"Nc1ncnc2c1ncn2[C@@H]1O[C@H](COP(=O)(O)OP(=O)(O)OP(=O)(O)O)[C@@H](O)[C@H]1O [ATP, adenosine triphosphate]",increase in Isc at 10^-3 M,"[1]; 10^-3 M, basolateral membrane (not seen with apical application), basal conditions",A large increase in Isc
same,change in Isc on application to either surface,"[1]; ATP, apical or basolateral surface, no amiloride",rapidly stimulated an increase in Isc
same,time for change in Isc to return to baseline or below,"[1]; ATP, apical or basolateral, basal conditions",≤ 5 min
same,Emax,"[1]; Homo sapiens, read-out: maximum mean % change in Isc",51 ± 8%
same,Cl^- secretory response,[1]; amiloride-pretreated tissues,A typical Cl^- secretory response
same,"change in ion transport, amiloride-pretreated versus basal state",[1]; amiloride-pretreated tissues,routinely smaller than that observed in tissues in the basal state
same,character of log concentration-effect curves,"[1]; amiloride-treated tissues, apical or basolateral",sigmoidal in character
same,duration of prolonged increase in Isc above baseline,"[1]; apical surface following amiloride pretreatment, most tissues",> 10 min
same,rank order of potency for Cl^- secretion,"[1]; apical surface, amiloride-pretreated, FIG. 2",ATP≥UTP>ATPγS>ADP>2MeSATP>ADPβS
same,"effectiveness, apical versus basolateral","[1]; basal conditions, 10^-7 to 10^-4 M",approximately equal
same,time for ATP induced increase in Isc to return to baseline,"[1]; basolateral addition, amiloride-pretreated",≤ 5 min
same,character of concentration-effect curve including 10^-3 M,"[1]; basolateral surface, 10^-3 M drug considered",biphasic in character
same,character of log concentration-effect curve,"[1]; basolateral surface, 10^-7 to 10^-4 M",sigmoidal character
same,rank order of potency for increase in Isc,"[1]; basolateral surface, FIG. 1",2MeSATP>UTP≥ATP>ATPγS>ADP>ADPβS
same,oscillations in Isc,[1]; following ATP,frequently observed
same,[Ca^2+ ]i response in CF tissues,[2],Increases in [Ca^2+ ]i
